{
  "source": "patent US10350315B2",
  "about": "“Quinoline-3-carboxamide compounds and their use in diagnosis” (Westfaelische Wihelms-Universitaet Muenster, priority 2014, dated 2019)",
  "molecular_target": "T1, S100A9 (Mus musculus, UniProt P31725)",
  "T1 construct": "from tissue; host or cells: living mice (inflamed ear, joints) and explanted mouse heart, aorta and lungs",
  "T1 sequence (P31725 2-113 limits assumed)": "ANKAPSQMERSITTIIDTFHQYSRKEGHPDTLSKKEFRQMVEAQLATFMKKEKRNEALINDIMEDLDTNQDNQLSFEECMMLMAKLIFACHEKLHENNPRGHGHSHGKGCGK",
  "test": "Irritant contact dermatitis (ICD) mouse model, fluorescence reflectance imaging (FRI)",
  "type": "in vivo, mice",
  "conditions": "FRI 3 h after tracer application",
  "description": "FIG. 6: Accumulation of Cy5.5-CES271 in a mouse model of contact dermatitis (ICD). (A) FRI images showing accumulation of a quinoline-3-carboxamide compound covalently linked to a label (Cy5.5-CES271) in a mouse model of contact dermatitis of the left ear in WT (left) and S100A9 deficient (right) mice. (B) FRI images and S100A9 staining showing accumulation of a quinoline-3-carboxamide compound covalently linked to a label (Cy5.5-CES271) in a mouse model of contact dermatitis.\nFIG. 21: FRI images of Cy5.5-CES271 and Cy7-CES271 in a mouse model of contact dermatitis (ICD). (A) Representative Fluorescence Reflectance images of a Cy7-CES271 and Cy5.5-aS100A9 coinjected animal.\nIn vivo fluorescence reflectance imaging was performed with an IVIS Spectrum small-animal imaging system (Xenogen). Images were acquired and analyzed using Living Image 4.X software (Xenogen). […] Fluorescence emission was measured by Fluorescence emission radiance per incident excitation irradiance (p/sec/cm2/sr/μW/cm2).\nICD was induced by the application of 20 μl 1% croton oil in olive oil-acetone (1:4) to the ventral surface of the left ear of mice for 24 h (n=5 per group), whereas the right ear served as a control. […] In the Cy7 channel the quantum yield is much lower compared to the Cy5.5 channel, which means that the recorded signal with Cy5.5-CES271 is higher than compared to […] (right image; FIG. 21). […]",
  "data": [
    {"substance": "3-ethyl-2((1E,3E,5E)-5-(3-(1-(5-ethyl-4-hydroxy-1-methyl-2-oxo-1,2-dihydroquinolin-3-yl)-1,15-dioxo-2-phenyl-5,8,11-trioxa-2,14-diazanonadecan-19-yl)-1,1-dimethyl-6,8-disulfonato-1H-benzo[e]indol-2(3H)-ylidene)penta-1,3-dien-1-yl)-1,1-dimethyl-1H-benzo[e]indol-3-ium-6,8-disulfonate [Cy5.5-CES271]", "values": [
      {"measurement": "Accumulation in the inflamed ear", "setting": "S100A9−/− deficient mice", "value": "not observed"},
      {"measurement": "Accumulation in the inflamed ear", "setting": "WT mice, croton oil on left ear", "value": "significant accumulation"}
    ]}
  ]
}
